Experimental findings from PubChem BioAssay (NCI) are described below.

What all share (assay): inhibition of tumour cell growth, NCI panel, 48 h
In assay [1] the test system is SR leukemia.
Assay [2] deals with SK-MEL-28 melanoma.
Assay [3] relates to SK-MEL-5 melanoma.
The test system of assay [4] is CAKI-1 renal.
Assay [5] relates to KM12 colon.
In assay [6] the test system is CCRF-CEM leukemia.
The test system of assay [7] is NCI-H522 lung.
Assay [8] concerns A498 renal.
The test system of assay [9] is HCT-15 colon.
Assay [10] deals with RPMI-8226 leukemia.

Structures are written as SMILES.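 Compound exposure: 48 hours, 5 concentrations, 96-well plates. GI50 = concentration required for 50% inhibition of growth. TGI: concentration producing complete growth inhibition.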 Where only a bound is given, the exact number is not on record here.

For `COc1ccc(Nc2nc3c(N)cc(C(F)(F)F)cc3nc2-c2ccccc2)cc1`, the TGI in assay [1], in assay [2], in [3], in assay [4], in assay [5] and in [6] was over 100 µM throughout. Moreover, the TGI in assay [7], in assay [8] and in [9] was over 100 µM throughout.
As for `CNS(=O)(=O)NN(C)S(=O)(=O)c1ccc(C)cc1`, the TGI in assay [1], in assay [2], in assay [3], in assay [4], in assay [5] and in [10] was over 100 µM each time. In addition, the TGI in [6], in assay [7] and in assay [8] was over 100 µM each time.
`COc1cc2c(cc1OCCCN1CCN(CCCOc3cc4c(cc3OC)C(=O)C3CCC[C@H]3C=N4)CC1)N=C[C@@H]1CCCC1C2=O` (some centres not stated): the GI50 in [1] is 0.367 µM; in assay [2], 32.9 µM; in assay [3], 2.2 µM; in assay [4], 26.5 µM; in assay [5] it was 22.7 µM; in assay [10], 0.24 µM. Further, the GI50 in [6] was 0.478 µM; in assay [7], 0.446 µM; in assay [8], 2.17 µM; in [9], 53.9 µM. In addition, the TGI in [1] is over 100 µM; in assay [2] it was over 100 µM; in assay [3], 6.4 µM; in [4], over 79.8 µM; in assay [5] it was over 100 µM; in [10] it was 3.81 µM. Moreover, the TGI in [6] was over 74.3 µM; in assay [7], over 29.6 µM; in assay [8], 7.49 µM; in assay [9], over 100 µM.
As to `CC[C@]12C=CCN3CC[C@]4(C(=C(C(=O)OC)C1)Nc1ccccc14)[C@@H]32`, the GI50 in assay [1] is 2.55 µM; in assay [2], 4.49 µM; in [3] it was 4.87 µM; in assay [4] it was 4.7 µM; in assay [5], 3.65 µM; in [10], 3.17 µM. The GI50 in assay [6] was 2.73 µM; in [7] it was 3.24 µM; in [8], 7.12 µM; in [9], 2.68 µM. Also, the TGI was 30.7 µM in assay [1]; 17.9 µM in assay [2]; 16.8 µM in assay [3]; 17.3 µM in [4]; 14.5 µM in assay [5]; 17.8 µM in assay [10]. The TGI in assay [6] was over 100 µM; in assay [7] it was 14.1 µM; in assay [8] it was 20.2 µM; in assay [9], 10.4 µM.
`COc1cc(C2c3cc4c(cc3[C@@H](OCCN)[C@H]3COC(=O)C23)OCO4)cc(OC)c1O` (some centres not stated): the TGI came to 0.0693 µM in assay [1]; 2.37 µM in assay [2]; 1.49 µM in [3]; 1.52 µM in [4]; 0.0409 µM in [6]; 0.596 µM in assay [7]. Further, the TGI in assay [8] was 1.67 µM; in [9], 24.7 µM.
For `COc1cc2nc(-c3ccc(Cl)cc3)cc(OCCCN3CCC(O)CC3)c2cc1OC`, the GI50 in assay [1] was 0.373 µM; in assay [2], 1.49 µM; in [3], 1.27 µM; in [4], 0.416 µM; in [5], 3.13 µM; in assay [6], 2.65 µM. For the same molecule, the GI50 in [7] was 2.19 µM; in assay [8], 1.53 µM; in [9], 0.763 µM. Further, the TGI in [1] amounted to 3.42 µM; in assay [2], 3.28 µM; in assay [3], 2.56 µM; in assay [4], 5.24 µM; in assay [5] it was 13.6 µM; in assay [6], 10.4 µM. The values for the TGI in assay [7], in assay [8] and in assay [9] were 5.77 µM, 3.83 µM and 12.5 µM, respectively.
Consider `CCN1N=CSC12C(=O)N(c1ccccc1)C(=O)N2c1ccccc1` (configuration not stated), for which the TGI in assay [1], in [2], in [3], in assay [4], in assay [5] and in assay [6] was over 100 µM in each case. The TGI in [7] and in assay [8] was over 100 µM throughout.
With `COc1ccc(C(NCCNC(c2ccc(OC)c(OC)c2)c2cc3c(cc2O)OCO3)c2cc3c(cc2O)OCO3)cc1OC` (configuration not stated), the TGI in [1] was 3.43 µM; in assay [2], 3.55 µM; in assay [3], 19.9 µM; in [4], 7.77 µM; in assay [5] it was 7.11 µM; in assay [6] it was 0.86 µM. Moreover, the values for the TGI in assay [7], in assay [8] and in [9] were 3.52 µM, 20.2 µM and 5.21 µM, respectively.
As for `Nc1ccc(C(=O)O)c2[nH]c3ccccc3c(=O)c12`, the TGI in assay [1], in assay [3], in [4], in [5], in assay [10] and in [6] was over 100 µM each time. Further, the TGI in [7], in assay [8] and in assay [9] was over 100 µM in each case.
Turning to `O=C1NCC2=C1CCC1c3ccccc3CCN21` (configuration not stated), the TGI in assay [1], in assay [2], in assay [3], in assay [4], in assay [5] and in assay [6] was over 100 µM throughout. Besides, the TGI in assay [7], in assay [8] and in assay [9] was over 100 µM in each case.
For the molecule `N/C(=N\N=C=C1C(=O)Nc2ccc(F)cc21)NO`, the TGI in assay [1], in assay [2], in [3], in assay [4], in assay [5] and in assay [6] was over 100 µM in each case. The TGI in assay [7], in [8] and in [9] was over 100 µM in each case.
With `Cc1ccc(S(=O)(=O)OC(C=O)C(O)C(O)COC(c2ccccc2)(c2ccccc2)c2ccccc2)cc1` (configuration not stated), the TGI turned out to be 24.7 µM in assay [1]; 35.9 µM in assay [2]; 28.9 µM in assay [3]; 36.6 µM in assay [4]; 24.2 µM in assay [5]; 36.9 µM in [10]. The TGI stood at 26.3 µM in assay [7], 32.6 µM in assay [8] and 27.1 µM in assay [9].
